Where two headings read alike, the source gives them in different places.
How the values were obtained:
Notch signalling = assay: Notch reporter assay (12xCSL firefly luciferase / renilla luciferase, HEK293T Notch1ΔE reporter cell line clone #A1-11); type: cell-based; design: AUC Notch: scale not given here; conditions: for Bottom (Emax) / IC50: 14p Notch assay DR; for Bottom (Emax): Emax indicated independent from assay constraints, in % (unit assumed); for AUC Notch: area under the 14-point dose-response curve, replicates averaged; for IC50 / activity at 10 µM / activity at 25 µM / activity: Homo sapiens, HEK-293T; for IC50: bottom constrained to Emax of positive control DAPT; for activity: 1,25µM
Summary of the method: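 Compounds at two-fold concentration in 10 µl medium were brought to one-fold by adding 10 µl holding 4000 Notch reporter cells (clone #A1-11) per well of a 384-well plate. After 24 h, Promega dual-GLO firefly and renilla luciferase were read on a SpectraMaxi3. Dose-response curves were fitted with a log(inhibitor) vs. response variable-slope model.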

γ-secretase complex = γ-secretase complex (Homo sapiens, UniProt P49768); assay: APP-C99 counter assay (GSI reporter assay); type: cell-based; design: AUC APP: scale not given here; conditions: for curve fit information / Hill-slope: 14p APP assay DR, bottom constrained to Emax of positive control LY-411575; for AUC APP: area under the 14-point dose-response curve, replicates averaged; for remaining activity at 10 µM / remaining activity at 25 µM / remaining activity at […]: 24 h, APP-C99 counter assay, read-out: 3p-DR in % of DMSO counter; for remaining activity at […]: 1,25µM
Summary of the method: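 γ-secretase activity reported via APP cleavage driving firefly luciferase, normalized to renilla. After 24 h transfection then 24 h compound exposure, signals were read (0.1 s integration). Triplicate dose–responses fitted by variable-slope four-parameter model for IC50; area under curve also derived.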

[1] = log10 value, read-out: approximated LogIC50 (converted)
[2] = 10 µM, primary screen, 24 h, unit from Fig. 2 legend, read-out: Primary screen at 10 µM (Notch reporter signal)
[3] = 10 µM, three-dose confirmation screen, unit from Fig. 2 legend, read-out: Hit confirmation at 10 µM (Notch reporter signal)
[4] = 10µM, 3-point DR confirmation screen, Notch reporter assay, read-out: inhibitor ratio in % of DMSO in 3 point DR
[5] = 10 µM, sheet conf vs counter 10 µM, same values as 3-point DR confirmation screen, read-out: Confirmation screen
[6] = 25µM, 3-point DR confirmation screen, Notch reporter assay, read-out: inhibitor ratio in % of DMSO in 3 point DR
[7] = 25 µM, Notch reporter 3-point dose-confirmation assay, sheet "conf vs counter 25 µM", read-out: Confirmation screen
[8] = 3-point DR confirmation screen, Notch reporter assay, read-out: inhibitor ratio in % of DMSO in 3 point DR

Structure (SMILES) | Bottom (Emax) (Notch signalling) | AUC Notch (Notch signalling) | curve fit information (γ-secretase complex) | AUC APP (γ-secretase complex) | IC50 (Notch signalling; read-out: approximated IC50) [µM] | IC50 (Notch signalling; [1]) [µM] | activity at 10 µM (Notch signalling; [2]) [%] | activity at 10 µM (Notch signalling; [3]) [%] | activity at 10 µM (Notch signalling; [4]) [%] | activity at 10 µM (Notch signalling; [5]) [%] | activity at 25 µM (Notch signalling; [6]) [%] | activity at 25 µM (Notch signalling; [7]) [%] | activity (Notch signalling; [8]) [%] | remaining activity at 10 µM (γ-secretase complex) [%] | remaining activity at 25 µM (γ-secretase complex) [%] | remaining activity at […] (γ-secretase complex) [%] | Hill-slope (γ-secretase complex) | approximated IC50, Notch reporter assay (Notch signalling; 14-point dose-response, Fig. 4)
O=C(Nc1nnc(-c2ccc3c(c2)OCCO3)o1)c1cccc(F)c1 [CBK287402] | 87.8 | 353.0 | IC50 indeterminate | 499.9 | – | – | – | – | – | – | – | – | – | – | – | – | – | –
O=C(Nc1nnc(-c2ccc3c(c2)OCCO3)o1)c1ccccc1F [CBK287405] | 15.0 | 288.0 | IC50 indeterminate | 502.9 | 3 | 3.16 | 36.4 | 44 | 44 | 44 | 37.6 | 37.6 | 85.1 | 137 | 153 | 124 | – | –
COc1cccc(-c2nnc(NC(=O)c3ccc4c(c3)OCCO4)o2)c1 [CBK287591] | 88.3 | 363.0 | – | 490.0 | – | – | – | – | – | – | – | – | – | – | – | – | -1.2 | –
Cc1ccc(-c2noc([C@@H]3Cc4[nH]cnc4CN3C(=O)CCC(=O)O)n2)cc1 [CBK288958] | 57.4 | 600.0 | – | 662.9 | 3.2 | 3.16 | 50.2 | 49.6 | 49.6 | 49.6 | 32.2 | 32.2 | 87.5 | 115 | 129 | 119 | -0.00263 | –
COc1ccc(C(=O)N2Cc3nc[nH]c3C[C@H]2c2nc(-c3ccc(OC)cc3)no2)cc1 [CBK288966] | 57.5 | 299.0 | – | 443.8 | 5.4 | 5.01 | 57.1 | 58.5 | 58.5 | 58.5 | 61.1 | 61.1 | 83.6 | 120 | 78.7 | 112 | -6.4 | –
Cc1ccccc1Nc1nc(N)nc(CN2CCCC(C(F)(F)F)C2)n1 (stereo not drawn) [CBK305073] | 32.5 | 305.0 | – | 566.4 | 5 | 5.01 | 39.6 | 65.1 | 65.1 | 65.1 | 48.4 | 48.4 | 102 | 129 | 156 | 92.5 | 0.121 | –
CC1CCc2c(sc3ncnc(NCCCN4CCCCCC4=O)c23)C1 (stereo not drawn) [CBK305947] | 34.4 | 316.0 | – | 578.1 | 7.1 | 7.94 | 41.4 | 66.5 | 66.5 | 66.5 | 46.7 | 46.7 | 107 | 118 | 144 | 96.6 | 0.121 | –
CC(C)C(=O)Nc1sc2c(c1C(=O)NCc1cccnc1)CCC2 [CBK306144] | ~ 92,84 | 357.0 | – | 480.2 | – | – | – | – | – | – | – | – | – | – | – | – | -0.0106 | Indeterminate

Source: PMC13242511, “Disrupting Notch signalling by a small molecule inhibiting dihydroorotate dehydrogenase activity” (Scientific Reports, 2026)
